≈ marks a conversion by molar mass, not a printed value.
Experiments:
[1] = tested on: HCV genotype 1 (Con-1/lucneo) replicon; type: cell-based; settings: 3 days, absence of HSA
Experimental: HCV genotype 1 (Con-1/lucneo) and 1a (H77/neo) replicon cells were incubated with serial dilutions of compound (1) 2′C-methyl adenosine (2′CMeA) or IFNα for 3 days in the absence or presence of 40 mg/mL human serum albumin (HSA).

[2] = design: species or system human; settings: in vivo
physchem = type: physicochemical; settings: pH 2, aqueous buffer
[3] = Phase-1 first-in-human trial, pharmacokinetics; type: in vivo
Source text: A randomized, double-blind, placebo controlled trial was designed to evaluate the safety/tolerability, pharmacokinetics and antiviral activity of single (in Part A) and multiple (in Part B) doses of Compound (1) (oleic acid solution, above) in subjects chronically infected with HCV genotype 1 (GT-1) without decompensated cirrhosis.
In completed Part A, five successive cohorts of 6 subjects were randomized (5:1) to receive single ascending doses of Compound 1 (40, 120, 240, 240-with food, or 480 mg) or placebo. In ongoing Part B, four successive cohorts of 12 subjects are randomized (10:2) to receive multiple ascending doses of Compound 1 (40 mg BID, 120 mg BID, 240 mg QD, 240 mg BID) or placebo, over 8 days.

| Molecule | EC50 HCV 1-lucneo [1] | tolerability of single doses [2] | solubility (physchem) | mean concentration 24 hours after dosing relative to protein binding adjusted in vitro HCV GT-1 replicon EC50 ([3]; 240 mg fasted single dose) | increase in systemic exposure with a high fat meal ([3]; single dose 240 mg with food vs fasted) |
| --- | --- | --- | --- | --- | --- |
| IFN-α | 2 IU/mL |  |  |  |  |
| Fc1ccccc1-c1nc2ccn(Cc3ccc(-c4ccc(C(F)(F)F)cc4C(F)(F)F)nn3)cc-2n1 [Compound 1, 5-((6-(2,4-Bis(trifluoromethyl)phenyl]pyridazin-3-yl)methyl)-2-(2-fluorophenyl)-5H-imidazo[4,5-c]pyridine] |  | well tolerated, with no serious or treatment-limiting adverse events (AEs) reported | 458 µg/mL (≈ 885 µM) | ~7 fold | approximately 2 fold |

— patent US8106054B2, “Crystalline pyridazine compound” (priority 2007, dated 2012)
